{
  "source": "patent EP2566451B1",
  "about": "“PHARMACEUTICAL COMPOSITIONS COMPRISING CEFDITOREN PIVOXIL” (Bilgic, Mahmut, priority 2010, dated 2011)",
  "origin": "cited, not measured here",
  "settings": "in water; stated in the background section, approximately",
  "data": [
    {"smiles": "CO/N=C(\\C(=O)N[C@@H]1C(=O)N2C(C(=O)OCOC(=O)C(C)(C)C)=C(/C=C\\c3scnc3C)CS[C@H]12)c1csc(N)n1", "note": "[Cefditoren pivoxil, (6R,7R)-pivaloyloxymethyl 7-[(Z)-2-(2-aminothiazol-4-yl)-2-(methoxyimino)acetamido]-3-[(Z)-2-(4-methylthiazol-5-yl)vinyl]-8-oxo-5-thia-1-azabicyclo[4.2.0]oct-2-ene-2-carboxylate]", "values": [
      {"measurement": "water solubility", "value": "less than 1 mg/ml"}
    ]}
  ]
}
